Data reported in ChEMBL document CHEMBL1201862, “PubChem BioAssay data set” (2004).
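Growth conditions: 96-well plates. Treatment: test compound, 48 hours, 5 concentrations. Analysis: linear interpolation between bracketing concentrations; unreached endpoints set to highest concentration. At the GI50, growth is halved.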 The source made the active and inactive calls. Rule as the data show it: active = GI50 up to about 1.1 µM and inactive = higher.

Key:
Test in all cases: growth of human tumour cells (NCI), 48 h
A498 = system: A498
A549 = system: A549
COLO 205 = system: COLO 205
DU-145 = system: DU-145
HCC 2998 = system: HCC 2998
HT-29 = system: HT-29
Hs-578T = system: Hs-578T
IGROV-1 = system: IGROV-1
K562 = system: K562
MDA-MB-435 = system: MDA-MB-435
NCI-H23 = system: NCI-H23
NCI-H460 = system: NCI-H460
NCI-H522 = system: NCI-H522
OVCAR-3 = system: OVCAR-3
OVCAR-4 = system: OVCAR-4
PC-3 = system: PC-3
SNB-19 = system: SNB-19
SNB-78 = system: SNB-78
UACC-257 = system: UACC-257
UO-31 = system: UO-31

In the case of `CCCCC(=O)OC[n+]1ccc2c(C)c3[nH]c4ccc(OC)cc4c3c(C)c2c1`, the GI50 (A498) is reported as 0.923 µM (active), the GI50 (A549) is reported as 0.308 µM (active) and the GI50 (COLO 205) is reported as 0.267 µM (active). For the same molecule, the GI50 (DU-145) was 0.76 µM (active), the GI50 (HCC 2998) was 0.512 µM (active) and the GI50 (HT-29) was 0.243 µM (active). The GI50 (Hs-578T) was 1.07 µM (active), the GI50 (IGROV-1) was 0.284 µM (active) and the GI50 (K562) was 0.0702 µM (active). The GI50 (MDA-MB-435) was 0.461 µM (active), the GI50 (NCI-H23) was 0.536 µM (active) and the GI50 (NCI-H460) was 0.0736 µM (active). For the same molecule, the GI50 (NCI-H522) was 0.695 µM (active), the GI50 (OVCAR-3) was 0.76 µM (active) and the GI50 (OVCAR-4) was 0.796 µM (active). For the same molecule, the GI50 (PC-3) was 0.308 µM (active), the GI50 (SNB-19) was 0.364 µM (active) and the GI50 (SNB-78) was 1.18 µM (inactive). For the same molecule, the GI50 (UACC-257) was 2.13 µM (inactive) and the GI50 (UO-31) was 1.04 µM (active).
For `C=CC(=O)c1ccc2c(c1)OCCOCCOCCOCCOCCO2`, the GI50 (A498) was > 100 µM (inactive), the GI50 (A549) was > 100 µM (inactive) and the GI50 (COLO 205) was 17.7 µM (inactive). The GI50 (DU-145) was > 100 µM (inactive), the GI50 (HCC 2998) was > 100 µM (inactive) and the GI50 (HT-29) was 28.9 µM (inactive). The GI50 (Hs-578T) was > 100 µM (inactive), the GI50 (IGROV-1) was > 100 µM (inactive) and the GI50 (K562) was 35.6 µM (inactive). The GI50 (MDA-MB-435) was 19.5 µM (inactive), the GI50 (NCI-H23) was > 44.4 µM (inactive) and the GI50 (NCI-H460) was > 100 µM (inactive). The GI50 (NCI-H522) was 9.48 µM (inactive), the GI50 (OVCAR-3) was 19.7 µM (inactive) and the GI50 (OVCAR-4) was 20.3 µM (inactive). The GI50 (PC-3) was 30.9 µM (inactive), the GI50 (SNB-19) was > 100 µM (inactive) and the GI50 (SNB-78) was 17.7 µM (inactive). For the same molecule, the GI50 (UACC-257) was 19.1 µM (inactive) and the GI50 (UO-31) was 26.2 µM (inactive).
In the case of `CCN(CC)Cc1c(/C=C\c2cc(OC)c(OC)c(OC)c2)ccc(OC)c1O`, the GI50 (A498) is reported as 6.22 µM (inactive), the GI50 (A549) is reported as 4.25 µM (inactive) and the GI50 (COLO 205) is reported as 2.45 µM (inactive). For the same molecule, the GI50 (DU-145) was 3.72 µM (inactive), the GI50 (HCC 2998) was 3.73 µM (inactive) and the GI50 (HT-29) was 2.76 µM (inactive). For the same molecule, the GI50 (Hs-578T) was 2.08 µM (inactive), the GI50 (IGROV-1) was 4.2 µM (inactive) and the GI50 (K562) was 3.27 µM (inactive). The GI50 (MDA-MB-435) was 0.264 µM (active), the GI50 (NCI-H23) was 2.97 µM (inactive) and the GI50 (NCI-H460) was 3.48 µM (inactive). For the same molecule, the GI50 (NCI-H522) was 1.87 µM (inactive), the GI50 (OVCAR-3) was 2.08 µM (inactive) and the GI50 (OVCAR-4) was 12.3 µM (inactive). The GI50 (PC-3) was 1.8 µM (inactive), the GI50 (SNB-19) was 10.3 µM (inactive) and the GI50 (SNB-78) was 4.17 µM (inactive). For the same molecule, the GI50 (UACC-257) was 16.8 µM (inactive) and the GI50 (UO-31) was 6.14 µM (inactive).
In the case of `CCOC(=O)Cn1c(=O)[nH]c(=O)c2[nH]cnc21`, the GI50 (A498) is reported as > 100 µM (inactive), the GI50 (A549) is reported as > 100 µM (inactive) and the GI50 (COLO 205) is reported as > 100 µM (inactive). The GI50 (HCC 2998) was > 100 µM (inactive), the GI50 (HT-29) was > 100 µM (inactive) and the GI50 (IGROV-1) was > 100 µM (inactive). The GI50 (K562) was > 100 µM (inactive), the GI50 (NCI-H23) was > 100 µM (inactive) and the GI50 (NCI-H460) was > 100 µM (inactive). For the same molecule, the GI50 (NCI-H522) was > 100 µM (inactive), the GI50 (OVCAR-3) was > 100 µM (inactive) and the GI50 (OVCAR-4) was > 100 µM (inactive). For the same molecule, the GI50 (SNB-19) was > 100 µM (inactive), the GI50 (SNB-78) was > 100 µM (inactive) and the GI50 (UACC-257) was > 100 µM (inactive). For the same molecule, the GI50 (UO-31) was > 100 µM (inactive).
